In US12583895B2, “Polypeptides for restoring endothelial function and methods of use thereof” (Vanderbilt University, priority 2019, dated 2026):
Entries after “also recorded” stand apart in the source; their conditions may differ. Non-standard residues stand in square brackets, D forms with d. No end group written: not given here. pS = N[C@@H](COP(=O)(O)O)C(=O)O

Legend:
rat aorta = experiment: Endothelial-dependent relaxation of rat aorta after acidosis (normal saline) injury; type: cell-based; conditions: NiPp 500 μM 30 min pretreatment in PL, then NS with NiPp 500 μM 2 h
Protocol: Freshly isolated rat aorta (RA) was cut into rings and then pretreated in the absence or presence of NiPp (500 μM) in PL for 30 min. Tissue rings were then transferred to normal saline (NS) to induce injury in the absence or presence of NiPp (500 μM) and continued incubation for 2 h at room temperature. After treatments, RA were suspended in the muscle bath, contracted with PE and then treated with escalating doses of carbachol (CCH; 10^−8 to 10^−5 M). The percent relaxation was determined as a change to the maximal PE-induced contraction. n=5-7 rats. *p<0.05 in two-way ANOVA with Tukey post-test. NiPp restores NS-induced endothelial dysfunction in RA.
Tissue rings were then transferred to NS and continued incubation in the absence or presence of NiPp (500 μM) for 2 h at room temperature. Control rings (Ctrl) were incubated in PL for 2.5 h. […] The percent relaxation was determined as a change to the maximal PE-induced contraction. […] Data are expressed as mean±SD. […]
This produced the maximal force tension relationship as previously described. […] Contractile responses were defined by stress, calculated using force generated by tissues as follows: stress (×10^5 N/m^2)=force (g)×0.0987/area, where area=wet weight (mg)/at maximal length (mm)]/1.055.
Relaxation was calculated as percent change in stress compared to the maximal PE-induced contraction (set as 100%). […]

[1] = tested on: human saphenous veins (HSV); experiment: Endothelial-dependent relaxation of human saphenous veins from CABG patients, muscle bath; type: cell-based; conditions: human saphenous vein; for endothelial function (percent relaxation to carbachol) in HSV / relaxation responses normalized to baseline relaxation in HSV: 1 hour; for relaxation responses normalized to baseline relaxation in HSV: mean±SD
Protocol: Human saphenous veins (HSV) were collected from patients undergoing coronary artery bypass grafting procedures and treated with NiPp (500 μM) for 1 hour at room temperature. PE-precontracted tissues were treated with carbachol (CCH; 10^−8 to 10^−5M). Percent relaxation was determined as a change to the maximal PE-induced contraction. Data are reported as mean responses±standard deviation. n=2. Baseline endothelial function in HSV was low.
PE-precontracted tissues were treated with carbachol (CCH; 10^−8 to 10^−5M). Percent relaxation were determined as a change to the maximal PE-induced contraction. Data are reported as mean responses±standard deviation. n=10. […] When normalized to baseline relaxation, NiPp led to 255±321.5% in relaxation responses in HSV.
HSV were suspended in the muscle bath, contracted with PE and treated with carbachol (CCH; 10^−8 to 10^−5 M). The percent relaxation was determined as a change to the maximal PE-induced contraction. Percent relaxation to 5×10^−6 M CCH is shown. n=10; *p<0.05 in paired t-test. […] Data are expressed as mean±SD.
Human saphenous veins (HSV) was obtained under approval from the Institutional Review Board of Vanderbilt University Medical Center from consented patients undergoing coronary artery bypass grafting procedures. HSV segments were collected immediately following surgical harvest and transported to the laboratory in PL for immediate experimentation.
Measurement of endothelial-dependent relaxation. Rings of HSV or RA (1-2 mm) were suspended in a muscle bath containing a bicarbonate buffer (120 mM sodium chloride, 4.7 mM potassium chloride, 1.0 mM magnesium sulfate, 1.0 mM monosodium phosphate, 10 mM glucose, 1.5 mM calcium chloride, and 25 mM sodium bicarbonate, pH 7.4) equilibrated with 95% O2/5% CO2 at 37° C. for 1 h at a resting tension of 1 g, manually stretched to three times the resting tension, and maintained at resting tension for an additional 1 h.
This produced the maximal force tension relationship as previously described. After equilibration, the rings were primed with 110 mM potassium chloride (with equimolar replacement of sodium chloride in bicarbonate buffer) to determine functional viability. Viable rings were then tested for contractile response to a dose of phenylephrine (PE) to yield submaximal contraction (approximately 60-70% of maximum KCl; 5×10^−6 M for HSV and 1-5×10^−7 M for RA) and relaxed with carbachol (CCH, 5×10^−7 M), an acetylcholine analogue, to determine endothelial-dependent relaxation responses. Force measurements were obtained using the Radnoti force transducer (model 159901A, Radnoti LLC, Monrovia, CA) interfaced with a PowerLab data acquisition system and LabChart software (AD Instruments Inc., Colorado Springs, CO). Contractile responses were defined by stress, calculated using force generated by tissues as follows: stress (×10^5 N/m^2)=force (g)×0.0987/area, where area=wet weight (mg)/at maximal length (mm)]/1.055.
Relaxation was calculated as percent change in stress compared to the maximal PE-induced contraction (set as 100%). Each data point was averaged from at least two rings from the same specimen. To determine concurrent signaling events, tissues were frozen in liquid nitrogen at relevant timepoints.
This study illustrates that the NiPp polypeptide (SEQ ID NO:1) restores endothelial function in aged human saphenous veins. […]

For “YARAAARQARASPAARRA(pS)AILPG (YARAAARQARASPAARRA[pS]AILPG) [NiPp, Cell-permeant phosphopeptide mimetic of Niban: transduction domain … conjugated to the region surrounding serine 602 of Niban]”, the “endothelial function (percent relaxation to carbachol) after acidosis (normal saline) injury” value (rat aorta) was “improved; also recorded: restores”, the “endothelial-dependent relaxation in HSV (percent relaxation to 5×10^−6 M CCH)” value ([1]; NiPp 100 μM in PL, 2 h, room temperature, n=10) was “improves; also recorded: improvement” and the “endothelial function (percent relaxation to carbachol) in HSV” value ([1]; NiPp 100 μM, room temperature, n=10) was “increased endothelial function”. For the same substance, the “relaxation responses normalized to baseline relaxation in HSV” value ([1]; NiPp 100 μM, n=10) was 255±321.5%, the “endothelial function (percent relaxation to carbachol) in HSV” value ([1]; NiPp 500 μM, room temperature, n=2) was “increased endothelial function” and the “relaxation responses normalized to baseline relaxation in HSV” value ([1]; NiPp 500 μM, n=2) was 183±24%.
